Test results taken from ChEMBL document CHEMBL1140952 (J Med Chem, 2009).

What was measured:
[1] = Antiproliferative activity against Met-dependent human GTL16 cells after 72 hrs by MTS assay; type: functional, cell-based; conditions: GTL 16, 72 h
[2] = target: Hepatocyte growth factor receptor (Homo sapiens, UniProt P08581); assay: Inhibition of MET
Cytochrome P450 3A4 = Cytochrome P450 3A4 (Homo sapiens, UniProt P08684); assay: Inhibition of CYP3A4; type: ADME
Chain of Cytochrome P450 3A4 (P08684 whole entry): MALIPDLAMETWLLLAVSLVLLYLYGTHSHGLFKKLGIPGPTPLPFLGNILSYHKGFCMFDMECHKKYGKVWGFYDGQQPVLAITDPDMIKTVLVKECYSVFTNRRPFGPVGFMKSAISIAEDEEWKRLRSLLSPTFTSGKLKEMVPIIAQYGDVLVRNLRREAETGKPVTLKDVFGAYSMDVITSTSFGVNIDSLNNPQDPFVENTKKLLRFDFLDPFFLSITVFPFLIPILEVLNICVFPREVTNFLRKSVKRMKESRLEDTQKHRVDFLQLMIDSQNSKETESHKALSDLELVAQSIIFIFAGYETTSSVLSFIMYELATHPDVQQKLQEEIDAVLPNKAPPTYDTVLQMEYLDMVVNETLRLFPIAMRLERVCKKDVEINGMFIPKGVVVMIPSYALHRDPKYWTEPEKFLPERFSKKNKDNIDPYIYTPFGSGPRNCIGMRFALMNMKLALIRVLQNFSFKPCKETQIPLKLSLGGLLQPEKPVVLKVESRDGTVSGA

Chain of Hepatocyte growth factor receptor (P08581 whole entry): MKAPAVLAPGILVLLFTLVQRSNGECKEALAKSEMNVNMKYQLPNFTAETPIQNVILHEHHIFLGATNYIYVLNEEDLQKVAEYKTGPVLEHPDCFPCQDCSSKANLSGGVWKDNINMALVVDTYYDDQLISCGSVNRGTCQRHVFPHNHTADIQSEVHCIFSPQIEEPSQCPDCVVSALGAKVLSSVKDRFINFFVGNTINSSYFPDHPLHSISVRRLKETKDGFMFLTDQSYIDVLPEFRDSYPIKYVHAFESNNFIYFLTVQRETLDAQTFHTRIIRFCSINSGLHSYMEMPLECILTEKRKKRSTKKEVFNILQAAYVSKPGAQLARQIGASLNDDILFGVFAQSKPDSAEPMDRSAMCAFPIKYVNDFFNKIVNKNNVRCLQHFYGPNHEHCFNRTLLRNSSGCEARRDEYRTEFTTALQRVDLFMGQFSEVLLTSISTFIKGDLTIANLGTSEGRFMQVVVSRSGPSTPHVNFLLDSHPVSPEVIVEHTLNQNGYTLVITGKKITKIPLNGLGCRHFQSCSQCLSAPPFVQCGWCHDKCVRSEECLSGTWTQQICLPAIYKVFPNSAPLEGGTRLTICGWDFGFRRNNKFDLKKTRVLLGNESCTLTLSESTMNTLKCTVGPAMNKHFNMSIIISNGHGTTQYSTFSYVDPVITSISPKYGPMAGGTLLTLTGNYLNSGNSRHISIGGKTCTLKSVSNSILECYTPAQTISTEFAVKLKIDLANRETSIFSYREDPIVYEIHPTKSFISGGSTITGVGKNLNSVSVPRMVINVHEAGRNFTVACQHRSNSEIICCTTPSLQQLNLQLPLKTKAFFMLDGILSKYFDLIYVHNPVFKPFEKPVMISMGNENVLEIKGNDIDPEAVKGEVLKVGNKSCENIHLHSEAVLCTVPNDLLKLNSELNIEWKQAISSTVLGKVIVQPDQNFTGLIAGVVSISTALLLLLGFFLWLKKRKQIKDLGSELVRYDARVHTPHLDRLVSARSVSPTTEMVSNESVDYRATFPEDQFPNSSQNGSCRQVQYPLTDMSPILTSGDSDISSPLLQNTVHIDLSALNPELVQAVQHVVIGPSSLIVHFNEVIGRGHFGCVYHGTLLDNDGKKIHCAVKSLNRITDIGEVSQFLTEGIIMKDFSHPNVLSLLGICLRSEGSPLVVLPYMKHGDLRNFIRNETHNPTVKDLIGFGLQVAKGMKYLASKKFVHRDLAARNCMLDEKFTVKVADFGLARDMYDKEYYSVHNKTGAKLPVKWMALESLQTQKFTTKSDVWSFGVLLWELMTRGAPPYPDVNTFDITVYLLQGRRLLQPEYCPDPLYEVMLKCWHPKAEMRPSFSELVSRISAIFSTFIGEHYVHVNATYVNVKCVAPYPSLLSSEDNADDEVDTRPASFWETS

| SMILES | IC50 [1] [nM] | IC50 [2] [nM] | IC50 (Cytochrome P450 3A4) [nM] |
| --- | --- | --- | --- |
| CC(C)c1c(Oc2ccc(NC(=O)c3cccn(-c4ccc(F)cc4)c3=O)cc2F)ccnc1N | 120 | 3.4 | – |
| CN1CCN(Cc2c(Oc3ccc(NC(=O)c4cccn(-c5ccc(F)cc5)c4=O)cc3F)ccnc2N)CC1 | 2800 | 5.9 | – |
| Nc1nccc(Oc2ccc(NC(=O)c3cccn(-c4ccc(F)cc4)c3=O)cc2F)c1C#CCO | 23 | 2.7 | – |
| C#Cc1c(Oc2ccc(NC(=O)c3cccn(-c4ccc(F)cc4)c3=O)cc2F)ccnc1N | 31 | 1 | < 1000 |
| Nc1nccc(Oc2ccc(NC(=O)c3cccn(-c4ccc(F)cc4)c3=O)cc2F)c1CO | 280 | 3.4 | – |
| Nc1nccc(Oc2ccc(NC(=O)c3c(OCCO)ccn(-c4ccc(F)cc4)c3=O)cc2F)c1Cl | 250 | 2.6 | – |
